Experiment in all cases: NCI tumour cell line growth inhibition, 48 h
Experiment [1] concerns NCI-H226 lung.
The test system of experiment [2] is T-47D breast.
Experiment [3] relates to MALME-3M melanoma.
Experiment [4] relates to MDA-MB-435.
The subject of experiment [5] is CCRF-CEM leukemia.
The subject of experiment [6] is HT29 colon.
The test system of experiment [7] is COLO 205 colon.
Experiment [8] has as its system HOP-92 NSCLC.
The test system of experiment [9] is CAKI-1 renal.
In experiment [10] the test system is SK-MEL-2 melanoma.

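1) Cells in 96-well plates. 2) Compound, 48 h, 5 concentrations. 3) Linear interpolation between surrounding doses. 4) Unreached endpoint = highest concentration. GI50: concentration for 50% inhibition of growth. TGI marks complete inhibition of growth.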

On to `CCc1cccc(CC)c1NC(=O)c1ccn2c1CCc1cnc(Nc3ccc(N4CCN(C)CC4)cc3OC)nc1-2`, for which the GI50 in experiment [1] was 14.7 µM; in [2] it was 1.55 µM; in [3], 1.87 µM; in experiment [4], 2.51 µM; in [5], 0.213 µM; in [6] it was 1.26 µM. Besides, the GI50 in [7] was 0.0231 µM; in experiment [8] it was 1.95 µM. In addition, the TGI was determined as 45.2 µM in experiment [1]; 4.18 µM in experiment [2]; 3.8 µM in [3]; 11.7 µM in experiment [4]; 6.6 µM in experiment [5]; 9.36 µM in experiment [6]. For the same molecule, the results for the TGI in [7] and in experiment [8] were 2.36 µM and 9.66 µM, respectively.

In the case of `C(=C\c1nc2ccccc2s1)/c1ccc(N2CCOCC2)s1`, the GI50 in experiment [9] is greater than 100 µM; in [1], 43.3 µM; in experiment [2], 71 µM; in experiment [3] it was 72 µM; in experiment [10], 63.8 µM; in experiment [4], greater than 100 µM. Moreover, the GI50 is 55.7 µM in [5], 20.8 µM in experiment [6], greater than 100 µM in [7] and 35.7 µM in experiment [8]. In addition, the TGI in experiment [9], in experiment [1], in experiment [2], in experiment [3], in [10] and in [4] was greater than 100 µM in each case. The TGI in experiment [5] is greater than 100 µM; in experiment [6] it was greater than 100 µM; in experiment [7] it was greater than 100 µM; in experiment [8] it was 95.3 µM.

On to `CC(C)NCCCCCNc1cc(O)cc2cccnc12`, for which the GI50 in [9] is greater than 100 µM; in experiment [1], greater than 100 µM; in experiment [2] it was 4.56 µM; in experiment [10], greater than 100 µM; in experiment [4], greater than 100 µM; in experiment [5] it was greater than 51.2 µM. Besides, the GI50 in experiment [6] is 31.6 µM; in experiment [7] it was 1.88 µM; in [8], 6.89 µM. The TGI in experiment [9], in experiment [1], in experiment [2], in [3], in experiment [10] and in [4] was greater than 100 µM in each case. The TGI in experiment [5], in [6], in experiment [7] and in experiment [8] was greater than 100 µM throughout.

`CS(=O)(=O)c1ccc(-c2[nH]c3ccc(F)cc3c2/C=N/NC(N)=S)cc1`: the GI50 in experiment [9] is 3.86 µM; in experiment [1] it was 3.28 µM; in [2], 12.3 µM; in [3] it was 7.83 µM; in experiment [10], 10.6 µM; in experiment [5], 0.366 µM. The GI50 was 0.558 µM in experiment [6], 1.47 µM in [7] and 0.574 µM in experiment [8]. Further, the TGI in experiment [9] was greater than 100 µM; in [1], greater than 100 µM; in experiment [2] it was 85 µM; in experiment [3], 41 µM; in experiment [10], greater than 100 µM; in [5] it was 27.2 µM. Also, the TGI was determined as 15.2 µM in [6], 5.14 µM in experiment [7] and 52.9 µM in experiment [8].

In the case of `Cc1cccc2c1ccc1c3occ(C)c3c(=O)oc21`, the GI50 in [9] was greater than 100 µM; in experiment [1] it was greater than 100 µM; in [2], 9.65 µM; in [3], greater than 100 µM; in experiment [10], greater than 100 µM; in experiment [4], greater than 100 µM. Moreover, the GI50 was greater than 100 µM in experiment [5], greater than 100 µM in [6], greater than 100 µM in experiment [7] and 49.9 µM in experiment [8]. Also, the TGI in experiment [9], in experiment [1], in experiment [2], in experiment [3], in experiment [10] and in experiment [4] was greater than 100 µM in each case. Moreover, the TGI in experiment [5], in experiment [6], in [7] and in [8] was greater than 100 µM in each case.

As to `CCCC(=O)Nc1ncnc2c1ncn2C1OC2COP(=O)(O)OC2C1OC(=O)CCC` (configuration not stated), the GI50 in experiment [9], in [1], in experiment [2], in experiment [3], in experiment [10] and in experiment [4] was greater than 1000 µM throughout. Further, the GI50 in experiment [6] and in experiment [7] was greater than 1000 µM each time. Moreover, the TGI in experiment [9], in [1], in experiment [2], in experiment [3], in experiment [10] and in [4] was greater than 1000 µM in each case. Also, the TGI in [5], in experiment [6], in experiment [7] and in [8] was greater than 1000 µM each time.

With `Nc1nc(Cl)nc2c1ncn2C1CCC(COP(=O)(O)OP(=O)(O)OP(=O)(O)O)O1` (configuration not stated), the TGI is greater than 100 µM in [9]; greater than 100 µM in experiment [1]; greater than 100 µM in [2]; greater than 100 µM in [3]; 58.1 µM in experiment [4]; greater than 100 µM in [5]. The figures for the TGI in experiment [6], in [7] and in [8] were 90.9 µM, 41.7 µM and 66.6 µM, respectively.

Turning to `Cc1ccc(C)c(N2C(=O)C(=O)c3c(C)ccc(C)c32)c1`, the TGI in experiment [9] is 87.1 µM; in experiment [1], greater than 100 µM; in experiment [2], 68.3 µM; in experiment [3], 96.5 µM; in experiment [10] it was 68.4 µM; in [4], 46.4 µM. The figures for the TGI in [6], in experiment [7] and in [8] were 46.4 µM, greater than 100 µM and 96.8 µM, respectively.

`O=C(O)CP(=O)(c1ccccc1)c1ccccc1.O=C(O)CP(=O)(c1ccccc1)c1ccccc1.[Cd]`: the GI50 is 22.7 µM in [9]; 12.7 µM in experiment [1]; 24 µM in experiment [2]; 0.536 µM in experiment [3]; 19.6 µM in experiment [10]; 4.26 µM in [4]. Further, the GI50 is 18 µM in experiment [6], 31.8 µM in experiment [7] and 18.4 µM in [8]. Besides, the TGI in experiment [9] was found to be 38.9 µM; in experiment [1], 28.6 µM; in experiment [2] it was 73.3 µM; in experiment [3], 3.76 µM; in experiment [10] it was 75.3 µM; in experiment [4] it was 22.4 µM. For the same molecule, the TGI in experiment [6] was 37.3 µM; in [7] it was greater than 100 µM; in experiment [8], 33.7 µM.

For the molecule `Cc1cc(O)c(O)c(Oc2cc(C)cc(O)c2O)c1`, the TGI in experiment [9] was greater than 100 µM; in experiment [1] it was 75.1 µM; in experiment [2] it was 84.9 µM; in experiment [10], greater than 100 µM; in experiment [4], greater than 100 µM; in experiment [5] it was 7.46 µM. For the same molecule, the TGI in experiment [6] was 41.1 µM; in experiment [7] it was 36.4 µM; in experiment [8], 41.1 µM.

As to `O=C(OC(CNc1c(C(=O)c2ccccc2)c(=O)n(Cc2ccccc2)c(=O)n1Cc1ccccc1)CN1CCCCC1)c1ccccc1` (configuration not stated), the GI50 in experiment [9] is 18.3 µM; in [1], 67.2 µM; in experiment [2] it was greater than 100 µM; in [3], 18.5 µM; in experiment [10], 19.1 µM; in experiment [4] it was 18.5 µM. The values for the GI50 in experiment [5] and in [7] were 16 µM and 19.6 µM, respectively. Further, the TGI in experiment [9] is 35.5 µM; in experiment [1], greater than 100 µM; in experiment [2], greater than 100 µM; in experiment [3], 40.7 µM; in [10], 34.8 µM; in [4] it was 37.7 µM. For the same molecule, the TGI in [5] amounted to 40 µM; in experiment [7] it was 47.8 µM.

Consider `Cc1csc(-c2ccc3c(c2)COC3(CCCN(C)C)c2ccc(F)cc2)c1` (configuration not stated), for which the GI50 in experiment [9] is 1.62 µM; in [1], 1.92 µM; in experiment [2], 1.85 µM; in experiment [3] it was 1.74 µM; in [10], 1.96 µM; in experiment [4], 1.69 µM. In addition, the GI50 was 2.21 µM in experiment [5], 2.59 µM in experiment [7] and 1.6 µM in [8]. The TGI in [9] is 3.01 µM; in [1], 3.76 µM; in experiment [2], 4.62 µM; in [3], 3.34 µM; in [10], 3.95 µM; in experiment [4] it was 3.08 µM. Further, the figures for the TGI in experiment [5], in experiment [7] and in experiment [8] were 5.35 µM, 5.64 µM and 3.17 µM, respectively.

As for `O=C1CCCC(=O)C1C(=O)c1ccc(C(F)(F)F)cc1[N+](=O)[O-]`, the GI50 in experiment [9], in experiment [1], in experiment [2], in experiment [3], in [4] and in [5] was greater than 100 µM throughout. Further, the GI50 in experiment [6] and in [7] was greater than 100 µM throughout. Besides, the TGI in experiment [9], in [1], in [2], in [3], in experiment [4] and in [5] was greater than 100 µM in each case. The TGI in experiment [6] and in [7] was greater than 100 µM in each case.

As to `COc1cc([N+](=O)[O-])c(OC)cc1-c1nc2n(c1/C(N)=N/C(=N)N)CCS2`, the GI50 in [1] was greater than 100 µM; in [2], 86.8 µM; in experiment [3], 18.7 µM; in [4], greater than 100 µM; in experiment [5] it was greater than 100 µM; in [6], greater than 100 µM. Besides, the GI50 in [7] is greater than 100 µM; in experiment [8], 41.9 µM. In addition, the TGI in experiment [1] is greater than 100 µM; in experiment [2], greater than 100 µM; in [3], 60.6 µM; in experiment [4] it was greater than 100 µM; in experiment [5], greater than 100 µM; in [6] it was greater than 100 µM. Further, the TGI in experiment [7] and in experiment [8] was greater than 100 µM in each case.

Regarding `CCCN(CCC)c1ccc(/C=N/NC(=O)c2cccnc2)cc1`, the GI50 is 30.1 µM in experiment [9]; 47.6 µM in experiment [1]; 28.1 µM in experiment [2]; 41.8 µM in [3]; 3.63 µM in [4]; 37.1 µM in experiment [5]. In addition, the GI50 in experiment [6] is 11 µM; in [7], 31.5 µM; in experiment [8], 20.3 µM. In addition, the TGI in experiment [9], in experiment [1], in [2], in [3], in experiment [4] and in experiment [5] was greater than 100 µM each time. Moreover, the TGI in [6] is 32 µM; in experiment [7] it was greater than 100 µM; in experiment [8], 64.8 µM.

As for `CN1CCN(CCCOc2ccc3nc(Nc4ccc(C(F)(F)F)c(Cl)c4)ccc3c2)CC1`, the GI50 in experiment [9] was 1.72 µM; in [2] it was 1.62 µM; in experiment [10], 2.44 µM; in experiment [4], 1.63 µM; in experiment [5], 1.57 µM; in experiment [6], 0.493 µM. For the same molecule, the results for the GI50 in experiment [7] and in experiment [8] were 1.7 µM and 1.15 µM, respectively. Also, the TGI in experiment [9] is 3.82 µM; in experiment [2] it was 4.54 µM; in experiment [10], 4.46 µM; in experiment [4], 3.16 µM; in experiment [5], 3.64 µM; in [6], 1.87 µM. Moreover, the TGI in experiment [7] amounted to 3.49 µM; in [8], 2.94 µM.

Regarding `O=C1C(Cl)=C(Nc2cccc(O)c2)C(=O)N1c1ccc(Cl)cc1Cl`, the GI50 in experiment [9] is 12.9 µM; in experiment [2], 43.6 µM; in experiment [3], 31.6 µM; in experiment [10] it was 35 µM; in experiment [4] it was 30.7 µM; in experiment [5], 17.5 µM. Besides, the GI50 in experiment [6] is 35.1 µM; in experiment [7], 28.2 µM. Further, the TGI is 45 µM in experiment [9]; greater than 100 µM in experiment [2]; 92 µM in experiment [3]; 72.5 µM in experiment [10]; greater than 100 µM in experiment [4]; 46.9 µM in experiment [5]. Further, the TGI in [6] and in [7] was greater than 100 µM each time.

For the origin of these results see PubChem BioAssay (NCI).
